Data: patent publication US20250114466A1, “ANTIFOLATE LINKER-DRUGS AND ANTIBODY-DRUG CONJUGATES” (BYONDIS B.V., priority 2021, published 2025)

Assays:
Format in all cases: cell-based
[1] = tested on: SW-620 cells; assay: In vitro cell viability assay (CellTiter-Glo, 6 days), SW-620; conditions: Homo sapiens, SW-620, 144 h, free antifolate drug, Table 1a
Experimental: (§1) FaDu, BxPC-3, HeLa, MV4-11, and RAJI cell lines were obtained from Deutsche Sammlung von Mikroorganismen und Zellkulturen ([…], Germany). Jurkat NucLight Red cells were obtained from Essen BioScience Inc. (Ann Arbor, MI, USA). SK-BR-3 and SK-OV-3 cells were cultured in McCoys 5A medium (Lonza; Walkersville, MD, USA) supplemented with 10% v/w Fetal Bovine Serum (FBS), Heat-inactivated (HI) (Gibco-Life Technologies; Carlsbad, CA) and 80 U/mL Pen/Strep (Gibco-Life Technologies), at 37° C. in a humidified incubator under 5% CO2 atmosphere. SW-620 cells were similarly maintained in RPMI 1640 medium (Lonza), containing 10% v/w FBS HI and 80 U/mL Pen/Strep. […]
(§2) After an overnight incubation, 10 serial log 10 dilutions of the free drugs were made in DMSO (Sigma-Aldrich). […] Cell viability was assessed after 6 days using a luminescent assay kit (CellTiter-Glo™ (CTG), Promega Corporation) according to the manufacturer's instructions. Percentage cell survival was calculated by dividing the measured luminescence for each free drug or ADC according to the concentration with the average mean of untreated cells (1% or 0.1% DMSO control (for free drugs) or 100% complete growth medium (for ADCs)) multiplied by 100. […]

[2] = tested on: A-549 cells; assay: In vitro cell viability assay (CellTiter-Glo, 6 days), A-549; conditions: Homo sapiens, A549, 144 h, free antifolate drug, Table 1a
Experimental: Human tumor cell lines SK-BR-3, SW-620, A-549, BT-474, Jurkat Clone E6-1, AU-565, and SK-OV-3 were obtained from American Type Culture Collection (Rockville, MD, USA). FaDu, BxPC-3, HeLa, MV4-11, and RAJI cell lines were obtained from Deutsche Sammlung von Mikroorganismen und Zellkulturen ([…], Germany). Jurkat NucLight Red cells were obtained from Essen BioScience Inc. (Ann Arbor, MI, USA). […]
Cells in complete growth medium were plated in 96-well plates (90 μL/well) and incubated at 37° C., 5% CO2 at the following cell densities: 6500 SK-BR-3, 4000 SW-620, 2500 A-549, 10000 BT-474, 3000 Jurkat Clone E6-1, 5000 AU-565, 1250 FaDu, 1250 BxPC-3, 1000 HeLa, 7500 MV4-11, 1000 RAJI, 3000 Jurkat NucLight Red, and 4000 SK-OV-3 cells per well. […] Cell viability was assessed after 6 days using a luminescent assay kit (CellTiter-Glo™ (CTG), Promega Corporation) according to the manufacturer's instructions. Percentage cell survival was calculated by dividing the measured luminescence for each free drug or ADC according to the concentration with the average mean of untreated cells (1% or 0.1% DMSO control (for free drugs) or 100% complete growth medium (for ADCs)) multiplied by 100. […]

[3] = tested on: SK-BR-3 cells; assay: In vitro cell viability assay (CellTiter-Glo, 6 days), SK-BR-3; conditions: Homo sapiens, SK-BR-3, 144 h, free antifolate drug, Table 1a
Experimental: as §1, §2

[4] = tested on: Human tumor cell lines; assay: In vitro cell viability assays, free antifolate drugs, overall comparison; conditions: for antifolate activity compared with talotrexin: Tables 1a-1d
Experimental: Human tumor cell lines SK-BR-3, SW-620, A-549, BT-474, Jurkat Clone E6-1, AU-565, and SK-OV-3 were obtained from American Type Culture Collection (Rockville, MD, USA). FaDu, BxPC-3, HeLa, MV4-11, and RAJI cell lines were obtained from Deutsche Sammlung von Mikroorganismen und Zellkulturen ([…], Germany). Jurkat NucLight Red cells were obtained from Essen BioScience Inc. (Ann Arbor, MI, USA). SK-BR-3 and SK-OV-3 cells were cultured in McCoys 5A medium (Lonza; Walkersville, MD, USA) supplemented with 10% v/w Fetal Bovine Serum (FBS), Heat-inactivated (HI) (Gibco-Life Technologies; Carlsbad, CA) and 80 U/mL Pen/Strep (Gibco-Life Technologies), at 37° C. in a humidified incubator under 5% CO2 atmosphere. SW-620 cells were similarly maintained in RPMI 1640 medium (Lonza), containing 10% v/w FBS HI and 80 U/mL Pen/Strep. A-549 cells were similarly maintained in F-12K Nutrient Mixture (1×) (Gibco-Life Technologies) media supplemented with 80 U/mL Pen/Strep and 5% v/w FBS, which was Qualified (Q) (Gibco-Life Technologies). BT-474 and AU-565 cells were similarly maintained in RPMI 1640 medium (Lonza), containing 10% v/w FBS, which was Qualified (Q) (Gibco-Life Technologies), and 80 U/mL Pen/Strep. Jurkat Clone E6-1, BxPC-3, HeLa, MV4-11, and RAJI cells were similarly maintained in RPMI 1640 medium (Lonza), containing 10% v/w FBS HI and 80 U/mL Pen/Strep. Jurkat NucLight Red cells were similarly maintained in RPMI 1640 medium (Lonza), containing 10% v/w FBS HI, 80 U/mL Pen/Strep and 0.5 μg/mL Puromycin (Gibco-Life Technologies). FaDu cells were cultured in EMEM medium (Lonza) supplemented with 10% v/w FBS HI (Gibco-Life Technologies), 1× GlutaMAX (Gibco-Life Technologies), and 80 U/mL Pen/Strep (Gibco-Life Technologies), at 37° C. in a humidified incubator under 5% CO2 atmosphere.
Cells in complete growth medium were plated in 96-well plates (90 μL/well) and incubated at 37° C., 5% CO2 at the following cell densities: 6500 SK-BR-3, 4000 SW-620, 2500 A-549, 10000 BT-474, 3000 Jurkat Clone E6-1, 5000 AU-565, 1250 FaDu, 1250 BxPC-3, 1000 HeLa, 7500 MV4-11, 1000 RAJI, 3000 Jurkat NucLight Red, and 4000 SK-OV-3 cells per well. After an overnight incubation, 10 serial log 10 dilutions of the free drugs were made in DMSO (Sigma-Aldrich). These free drug dose-response curves were 10-times further diluted in complete growth medium. For the ADCs according to the invention 10 serial log 10 dilutions were made in complete growth medium. 10 μL of a composition comprising a free drug or an ADC according to the invention was added to the assay plate (final DMSO content for free drugs was 1%). […] Cell viability was assessed after 6 days using a luminescent assay kit (CellTiter-Glo™ (CTG), Promega Corporation) according to the manufacturer's instructions. Percentage cell survival was calculated by dividing the measured luminescence for each free drug or ADC according to the concentration with the average mean of untreated cells (1% or 0.1% DMSO control (for free drugs) or 100% complete growth medium (for ADCs)) multiplied by 100.
Curves were fitted by non-linear regression using the sigmoidal dose-response equation with variable slope (four parameters) using curve-fitting software (GraphPad Prism, version 9.4.0 for Windows, GraphPad, San Diego, CA or Electronic Laboratory Notebook (ELN) add-in BioAssay, version 19.1.0.0218, Perkin Elmer, Waltham, MA). Relative IC50 values were calculated as the concentration that gives a response halfway between bottom and top of the curve, when using a 4-parameter logistic fit. Data were reported as mean IC50 value of at least one experiment performed in duplicate.

Row | SMILES | antifolate activity compared with talotrexin [4] | other results
1 | Nc1nc(N)c2nc(CNc3ccc(C(=O)N[C@@H](CCCNC(=O)c4ccccc4C(=O)O)C(=O)O)cc3)cnc2n1 [Talotrexin] | – | IC50 [1]: 1.74 nM; IC50 [2]: 1.7 nM; IC50 [3]: 1.83 nM
2 | Nc1ccc(C(=O)NCCC[C@H](NC(=O)c2ccc(CCc3ccc4nc(N)nc(N)c4c3)cc2)C(=O)O)cc1 [XJ4, (S)-5-(4-Aminobenzamido)-2-(4-(2-(2,4-diaminoquinazolin-6-yl)ethyl)benzamido)pentanoic acid] | less active than talotrexin | –
3 | Nc1ccc(C(=O)NCCC[C@H](NC(=O)c2ccc(NCc3cnc4nc(N)nc(N)c4n3)cc2)C(=O)O)cc1 [XT35, (S)-5-(4-Aminobenzamido)-2-(4-(((2,4-diaminopteridin-6-yl)methyl)amino)benzamido) pentanoic acid] | less active than talotrexin | –
4 | Nc1ccc(C(=O)NCCC[C@H](NC(=O)c2ccc(NCc3ccc4nc(N)nc(N)c4c3Cl)cc2)C(=O)O)c(-c2nnn[nH]2)c1 [XT110, (S)-5-(4-Amino-2-(1H-tetrazol-5-yl)benzamido)-2-(4-(((2,4-diamino-5-chloroquinazolin-6-yl)methyl)amino)benzamido)pentanoic acid] | – | antifolate activity compared with XX35 ([4]; 5-chloroquinazoline-2,4-diamine instead of pteridine-2,4-diamine): strongly increased the antifolate activity
5 | [N-]=[N+]=Nc1ccc(C(=O)NCCC[C@H](NC(=O)c2ccc(CCc3cnc4nc(N)nc(N)c4n3)cc2)C(=O)O)cc1 [XX5, (S)-5-(4-Azidobenzamido)-2-(4-(2-(2,4-diaminopteridin-6-yl)ethyl)benzamido) pentanoic acid] | less active than talotrexin | –
6 | Nc1ccc(C(=O)NCCC[C@H](NC(=O)c2ccc(CCc3cnc4nc(N)nc(N)c4n3)cc2)C(=O)O)cc1 [XX7, (S)-5-(4-Aminobenzamido)-2-(4-(2-(2,4-diaminopteridin-6-yl)ethyl)benzamido) pentanoic acid] | less active than talotrexin | –
7 | CN(Cc1cnc2nc(N)nc(N)c2n1)c1ccc(C(=O)N[C@@H](CCCNC(=O)c2ccc(N)cc2)C(=O)O)cc1 [XX12, (S)-5-(4-aminobenzamido)-2-(4-(((2,4-diaminopteridin-6-yl)methyl)(methyl)amino)benzamido)pentanoic acid] | less active than talotrexin | –
